Measured values taken from ChEMBL document CHEMBL5344458, “AI in Pharma: Transforming Drug Discovery and Strategic Management with MYC-Modulating Compounds and BET Protein Inhibitors” (ACS Med Chem Lett, 2024).

How the values were obtained:
[1] = Oral bioavailability in Sprague-Dawley rat at 5 mg/kg administration by LC-MS/MS analysis; assay type: ADME, organism-based; details: in vivo
[2] = Half life in Sprague-Dawley rat at 1 mg/kg,iv administration by LC-MS/MS analysis; assay type: ADME, organism-based; details: in vivo

bioavailability [1] [%]	half-life [2] [min]	Structure (SMILES)
66	54	CNC(=O)c1[nH]c(C(=O)NC2CCC2)cc1OC(C)c1ccccc1 (stereo not drawn)
65		CNC(=O)c1[nH]c(C(=O)NC2CCC2)cc1OC(C)c1ccc(Cl)cc1F (single isomer, unassigned)
15	36	CNC(=O)c1[nH]c(C(=O)NC2COC2)cc1OC(C)c1ccc(Cl)cc1 (stereo not drawn)
47	24	CNC(=O)c1[nH]c(C(=O)NC2CCC2)cc1OC(C)c1ccc(Cl)cc1 (stereo not drawn)

The remaining lines, values behind:

Structure (SMILES)	bioavailability [1] [%]	half-life [2] [min]
CCNC(=O)c1cc(OC(C)c2ccc(Cl)cc2)c(C(=O)NC)[nH]1 (stereo not drawn)	30	66
CNC(=O)c1[nH]c(C(=O)NC2CCC2)cc1OC(C)c1ccccc1F (stereo not drawn)	58	30
CCNC(=O)c1cc(OC(C)c2ccc(Cl)cc2F)c(C(=O)NC)[nH]1 (stereo not drawn)	69	18
CCNC(=O)c1cc(OC(C)c2ccccc2F)c(C(=O)NC)[nH]1 (stereo not drawn)	46	24
CNC(=O)c1[nH]c(C(=O)NC2CC2)cc1O[C@@H](C)c1ccccc1F	70	
CNC(=O)c1[nH]c(C(=O)N[C@H]2CC[C@H](O)CC2)cc1OC(C)c1ccc(Cl)cc1F (stereo partly drawn)	66	84
